Results as given in PubChem BioAssay AID2305 (GlaxoSmithKline (GSK), 2010).
Where “and” joins values, the source holds several entries; their conditions need not be identical. Identical values can stand only once.

Tested on: P. falciparum 3D7 growth, pLDH absorbance
Test: blood-stage malaria parasite growth potency – strain 3D7, dose response (AID 2305)

Structure (SMILES)	IC50
CCc1ccc(C2CCN(CCCCNC(=O)c3ccc(NC(=O)c4ccc(Cl)cc4)cc3)CC2)c(OCCO)c1	1.39 µM
CCN(CCN(C)C)Cc1ccc(-c2ccc(NS(=O)(=O)c3cccc(Cl)c3)cc2)cc1	0.52 µM
CN1CCN(Cc2ccc(-c3ccc4c(Nc5cc(O)c(Cl)cc5F)ccnc4c3)o2)CC1	0.11 µM
CC(C)CCN1CCC(Oc2cccc(NC(=O)c3ccc(C(F)(F)F)cc3)c2)CC1	0.63 µM
Cc1cc2ccccc2n1CC(=O)N1CC(C(=O)N2CCCCC2)Oc2ccccc21 (stereo not drawn)	0.9 µM
c1ccc2c(c1)CN(Cc1ccsc1)CC1(CCN(Cc3c[nH]c4cnccc34)CC1)O2	1.15 µM
CC(=O)Nc1ccc(S(=O)(=O)NC2=NC(C)(C)N(OCc3ccc(Cl)c(Cl)c3)C(N)=N2)cc1	0.03 µM
Cc1cc(Cl)c(S(=O)(=O)N2CCc3ccccc32)cc1OCC(=O)NC1CCCCC1	0.3 µM
NC(=NCc1ccc(Cl)c(Cl)c1)NC(=NCCCCCCN=C(NC(N)=NCc1ccc(Cl)c(Cl)c1)N1CCCCC1)N1CCCCC1	0.57 µM
Cc1c(CCC#N)c(NCc2ccccc2)n2c(nc3ccccc32)c1C#N	0.88 µM
CCn1ccc2c(N3CCCC3=O)cc(C(=O)N[C@@H](Cc3ccccc3)[C@H](O)CNCc3cccc(OC)c3)cc21	0.59 µM
Cc1c[nH]c2ccc(/C=C/C(=O)NC3CCC(CCN4CCc5ccc(C#N)cc5CC4)CC3)cc12 (stereo not drawn)	0.83 µM
COc1ccccc1CN1CCC(CNC(=O)c2cc(-c3ccc(N(C)C)cc3)cs2)C1 (stereo not drawn)	1.27 µM
c1ncc(CCNc2nc(Nc3ccc4c(c3)OCO4)nc(NC3CCCC3)n2)[nH]1	1.15 µM
Cc1cccc(Oc2cccc3[nH]nc(N)c23)c1	1.04 µM
CCCCc1nc2nc(N)nc(N)c2cc1CCC	0.31 µM
O=C([C@@H]1CCCCN1c1ccc([N+](=O)[O-])c2ccccc12)N1CCN(c2ncccn2)CC1	0.2 µM
C[C@H](Nc1nc(C(Oc2ccccc2)c2ccccc2)nc2[nH]ncc12)c1ccccc1 (stereo partly drawn)	0.48 µM
COc1cc(Nc2nccc(N3CCC(NC(=O)c4cccc(C#N)c4)C3)n2)cc(OC)c1OC (stereo not drawn)	0.99 µM
c1ccc(CCNc2ncnc3c2[nH]c2ccccc23)cc1	0.6 µM
NC1=NC(c2ccccc2)(c2ccccc2)C(=O)N1CCCCc1ccccn1	1.26 µM
COC1CCC(C(=O)Nc2ccc(-c3cccc(-c4nc5ccc(C(F)(F)F)cc5[nH]4)c3)cc2)CC1 (stereo not drawn)	0.55 µM
COc1ccc(C(=O)[C@H]2C[C@@H]2CN(C)CC(O)c2cc(C)c(OC)cc2C)cc1 (stereo partly drawn)	0.97 µM
O=C(Nc1ccccc1Cl)NC1CCC(CN2CCC(c3c[nH]c4ccccc34)CC2)CC1 (stereo not drawn)	0.8 µM and 0.75 µM
CCc1ccc(CN2CCC(CNC(=O)c3cc(-c4cccc(Cl)c4)cs3)C2)cc1 (stereo not drawn)	1.11 µM

Structure (SMILES)	IC50
COc1ccc(-c2ccc(NC(=O)c3ccc(C#N)cc3)cc2)cc1CN(C)CCN(C)C	0.66 µM
O=C(/C=C/c1ccc(Cl)c(Cl)c1)NCCCCCN1CCC(NC(=S)Nc2ccc(Cl)cc2)CC1	0.44 µM
COc1cc(NC(=O)/C=C/c2ccccc2OC(F)(F)F)cc(OCCN2CCC(O)(c3ccccc3)CC2)c1	0.29 µM
Cc1ccc(Nc2ccnc(Nc3ccc(F)c(Cl)c3)n2)cc1O	0.73 µM
Cc1cc(F)ccc1-c1nc(NCCCNCCc2ccccc2)nc2c1ccc(=O)n2-c1c(F)cccc1F	0.19 µM
CC(=O)Nc1ccc(C(=O)Nc2ccc(-c3cccc(-c4nc5c(C)cccc5[nH]4)c3)cc2)cn1	0.26 µM
CC(C)CCC[C@@H]([C@@H](CC1CCCCC1)C(=O)N[C@@H](CCCCNC(=O)OCc1ccccc1)C(=O)Nc1nccs1)N(O)C=O	0.46 µM
Cc1ccc(C2(C)CC(C)(C)N(C(=O)COc3ccc4ccccc4c3)c3ccccc32)cc1 (stereo not drawn)	0.11 µM
COc1ccc2nccc([C@@H](O)CN3CCC(NCCOc4c(C)cccc4F)CC3)c2c1	0.35 µM
CN1CCN(Cc2ccc(-c3cc4nccc(Nc5ccc(Oc6ccccc6)cc5)c4cc3Cl)o2)CC1	0.98 µM
CC(C)C[C@@H](/C=N/N1CC(=O)NC1=O)NC(=O)[C@H](CC(C)C)NC(=O)c1ccc(OCCN2CCOCC2)cc1	0.27 µM
c1ccc(CN2CCN(CCNc3c4ccccc4nc4ccccc34)CC2)cc1	0.88 µM
CCCN1CCN(Cc2ccc(C(=O)Nc3ccc(Cl)cc3)cc2)CC1	0.05 µM
Cc1cc(C)cc(-n2c(C)cc(C=C3SC(=Nc4ccc(Cl)cc4)NC3=O)c2C)c1	0.07 µM
CC(C)CCn1c(Sc2ccc([N+](=O)[O-])cc2C(F)(F)F)nnc1-c1ccccc1Cl	0.92 µM
CC(CN(C)C)C(=O)Nc1ccc(-c2ccc(-c3nc4ccc(F)cc4[nH]3)cc2)cc1 (stereo not drawn)	0.77 µM
COc1ccccc1COc1c(C)nc(N)nc1N	0.71 µM
CCCc1cc(NC2CCN(C)CC2)nc(Nc2ccc(F)cc2)n1	0.8 µM
CN(C)Cc1ccc(CN2CCN(CCOc3ccc(-c4ccc(Cl)cc4)cc3)CC2)o1	1.02 µM
CCN(CC)Cc1cc(Nc2ccnc3cc(Cl)ccc23)ccc1O	0.16 µM
COc1ccc(CNCc2cccc(-c3ccc(-c4nc5c(C)cccc5[nH]4)cc3)c2)cc1	0.24 µM
Cc1nnsc1C(=O)Nc1cccc(-c2ccc(-c3nc4ccccc4[nH]3)cc2)c1	0.87 µM
COc1ccccc1OCCN(CC(O)COc1cccc2[nH]c3ccccc3c12)CC(O)COc1cccc2[nH]c3ccccc3c12 (stereo not drawn)	0.64 µM
COc1ccc(S(=O)(=O)NC2CCN(CCNC(=O)Nc3cc(C)nc4ccccc34)C2)cc1 (stereo not drawn)	1.19 µM
Cc1nnnn1-c1ccc(C(=O)N2CCC3(CC2)CN(Cc2ccc(Cl)c(Cl)c2)C(=O)O3)cc1	0.18 µM

Structure (SMILES)	IC50
COc1ccc(CN2CCCN(Cc3cccc(NC(=O)c4ccc(-c5ccccc5)cc4)c3)CC2)cc1	0.94 µM
Cc1c(Oc2ccc(-n3ccnc3)cc2)ncnc1N1CCC2(CC1)CNCc1ccccc12	0.89 µM
Cc1cccc2[nH]c(-c3cccc(-c4cccc(CN5CCN(c6ccncc6)CC5)c4)c3)nc12	0.2 µM
Clc1ccc2c(N3CCN(CCN4CCN(c5ccnc6cc(Cl)ccc56)CC4)CC3)ccnc2c1	0.13 µM
COc1ccc(Nc2nccc(N3CCC(NC(=O)Nc4cccc(C(C)=O)c4)C3)n2)cc1 (stereo not drawn)	0.82 µM
COc1ccc(-c2nc3c(N)nc(N)nc3nc2C(C)C)cc1	0.19 µM
N=c1c2c(n(Cc3ccc(Cl)cc3Cl)c3c1CCC3)CCCC2	0.35 µM
COc1ccc2nccc([C@@H](O)CN3CCC(NCc4cc5c(F)ccc(F)c5[nH]4)CC3)c2n1	0.7 µM
CC(=O)c1ccc2c(c1)CCN(CCC1CCC(NC(=O)c3cc4ccccc4[nH]3)CC1)CC2 (stereo not drawn)	0.98 µM
O=C(Cc1ccccc1)NC1CCN(c2ccnc3cc(Cl)ccc23)C1 (stereo not drawn)	0.8 µM
C=Cc1c(C2CCN(CCCCNC(=O)c3ccc(-c4ccc(C#N)cc4)cc3)CC2)ccc2c1CCCC2	0.88 µM
Cc1[nH]c(C)c(-c2ccc(-c3ccccc3C(F)(F)F)nc2)c(=O)c1Br	0.17 µM
COc1ccc(Nc2ncc3c(-c4cccc(NC(=O)Cc5ccc(O)cc5)c4)c[nH]c3n2)cc1OC	0.57 µM
CCCCCc1cc(O)c2c(c1)OC(C)(C)CC2C1=CCN(Cc2cccnc2)CC1 (stereo not drawn)	0.99 µM
CCc1nc(N)nc(N)c1-c1ccc(F)cc1	0.41 µM
CCN(CC)CCN(CCN(CC)CC)c1ccc2c(c1)Sc1c(Cl)ccc(Cl)c1S2	0.88 µM
COc1cc(C(=O)NC2CCN(Cc3ccccc3)CC2)ccc1-c1nc2cc(Cl)c(C)cc2[nH]1	0.3 µM
Cc1cccc2[nH]c(-c3ccc(-c4ccc(CNCCNC(=O)c5ccnn5C)cc4)cc3)nc12	0.48 µM
C=C[C@@H]1CN2CC[C@H]1C[C@H]2[C@H](O)c1cc(-c2ccc(Cl)cc2)nc2ccc(OC)cc12	0.03 µM
CCC(C)c1ccc(Nc2nc(C)cc(N(CC)CCCN3CCCCC3)n2)cc1 (stereo not drawn)	0.33 µM
Cc1cc(C(=O)NCc2ccc(-c3c(C)noc3C)cc2)n(-c2ccccc2)n1	0.82 µM
Cc1cccc2[nH]c(-c3cccc(-c4cccc(CNCc5ccccc5)c4)c3)nc12	0.39 µM
CCN(CC)CCCC(C)Nc1c2ccccc2nc2c1ccc1ccccc12 (stereo not drawn)	1.09 µM
Nc1ncc(-c2ccc(F)c(Cl)c2)c(N)n1	1.23 µM
CCC[C@@H]([C@@H](CC(C)C)C(=O)N[C@@H](CCCCNC(=O)c1cccc(OC)c1)C(=O)Nc1nccs1)N(O)C=O	0.1 µM

Structure (SMILES)	IC50
Clc1ccc(CNCCCCCCCNCc2ccc(Cl)c(Cl)c2)cc1Cl	0.37 µM
Oc1ccc2[nH]c(-c3ccc(OC(F)(F)F)cc3)nc2c1CNC1CCCC1	1.75 µM
CN(C)Cc1cc2c(O)c(Cc3ccccc3)ccc2o1	1.09 µM
Cc1cccc(-c2nc3cc(NC(=O)c4ccc([N+](=O)[O-])o4)ccc3o2)c1	0.88 µM
CC(Oc1ccc(Cl)cc1Cl)c1nc(-c2ccc(NC(=O)c3ccco3)cc2)no1 (stereo not drawn)	0.9 µM
O=S(=O)(Nc1ccc(CCN2CCC(N3CCCCC3)CC2)cc1)c1ccccc1C(F)(F)F	1.02 µM
COc1ccc(CNc2nccc3ccc(-c4ccc(N)nc4)cc23)cc1	0.98 µM
CCOc1cccc2nc(NCCCNCc3ccc(Cl)c(Cl)c3)cc(NCCCNCc3ccc(Cl)c(Cl)c3)c12	0.57 µM
CC(C)NCc1ccc(-c2ccc(-c3nc4ccc(F)cc4[nH]3)cc2)cc1	0.21 µM
COc1cc(Cc2cnc(N)nc2N)cc(OCCCCCCN)c1OC	0.19 µM
COC(=O)C(Cc1ccccc1)NC(=O)NC1CCN(c2ccnc(Nc3ccc(F)cc3)n2)C1 (stereo not drawn)	1.09 µM
CCN(CC)CCCN(C(=O)c1cc2c(C)nn(-c3ccccc3)c2s1)c1nc(-c2ccc(OC)cc2)cs1	1.15 µM
COc1cc2c(cc1O)[C@@H]1[C@H](O)[C@@H](O)C=C3CCN(C2)[C@H]31	0.99 µM
O=C(N[C@H]1CCN(Cc2ccc(OCCCN3CCCCC3)cc2)C1)c1cc(Cl)cc(Cl)c1	0.62 µM
Cc1nc(-c2nc(NCCc3c(C)noc3C)ncc2-c2ccsc2)sc1C	0.26 µM
CC(C)(C)C(=O)Nc1c(-c2cc(=O)oc3cc4c(cc23)CCC4)oc2ccccc12	1.26 µM
CNC(=C[N+](=O)[O-])NCCSCc1cc(C)c(CN(C)C)s1	0.35 µM
Cn1cc(CN2CCC(CCOC(c3ccccc3)c3ccccc3)CC2)cn1	0.26 µM
CC(Cl)=CCc1c(C)[nH]c2c(ccc3ccccc32)c1=O	0.2 µM
CS(=O)(=O)CCNCc1cccc(-c2ccc3c(Nc4ccc(Oc5cccnc5)cc4)ccnc3c2)c1	0.14 µM
O=C(/C=C/c1cccc(Br)c1)NCCCCCN1CCC(c2c[nH]c3ccccc23)CC1	0.63 µM
CCOc1cc2ccccc2cc1CNCCCCCCNCc1cc2ccccc2cc1OCC	0.98 µM
CCCCCCC(C)c1cc(O)c2c(c1)OC(C)(C)c1ccncc1-2 (stereo not drawn)	0.8 µM
